Our source for the T/C values is PubChem BioAssay AID192 (DTP/NCI, 2004).

Where “and” joins values, the source holds several entries; their conditions need not be identical. Identical values can stand only once. Inconclusive results and toxic doses are left out.

This test relates to BDF1 mice, B16 melanoma ip, median survival T/C. Put plainly: NCI In Vivo Anticancer Drug Screen. Data for tumor model B16 Melanoma (intraperitoneal) in B6D2F1 (BDF1) mice. Conditions: endpoint: median survival time, higher = longer survival. The procedure, abridged: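 Each result divides a survival or tumor-size measurement in the compound-treated group by the same measurement in the vehicle group.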

Where [1] appears, read: dose: 12.5 mg/kg/injection, schedule: Q01DX009 (ip), vehicle: saline with Tween-80.
The mark [2] stands for this setting: dose: 25.0 mg/kg/injection, schedule: Q01DX009 (ip), vehicle: saline with Tween-80.
Setting [3] is: dose: 50.0 mg/kg/injection, schedule: Q01DX009 (ip), vehicle: saline with Tween-80.
The mark [4] stands for this setting: dose: 100.0 mg/kg/injection, schedule: Q01DX009 (ip), vehicle: saline with Tween-80.
Setting [5] is: dose: 25.0 mg/kg/injection, schedule: Q01DX009 (ip), vehicle: Klucel (hydroxypropylcellulose) (HPC).
The mark [6] stands for this setting: dose: 50.0 mg/kg/injection, schedule: Q01DX009 (ip), vehicle: Klucel (hydroxypropylcellulose) (HPC).
[7] abbreviates: dose: 100.0 mg/kg/injection, schedule: Q01DX009 (ip), vehicle: Klucel (hydroxypropylcellulose) (HPC).
[8] abbreviates: dose: 200.0 mg/kg/injection, schedule: Q01DX009 (ip), vehicle: Klucel (hydroxypropylcellulose) (HPC).
Where [9] appears, read: dose: 4.0 mg/kg/injection, schedule: Q01DX009 (ip), vehicle: saline.
Setting [10] is: dose: 8.0 mg/kg/injection, schedule: Q01DX009 (ip), vehicle: saline.

With `CC(=Nc1ccccc1)C1=C(O)C(Cc2ccccc2)NC1=O` (stereo unspecified), the T/C by setting is: under setting [1], 100 % of control; under setting [2], 102 % of control; under setting [3], 106 % of control; under setting [4], 98 % of control and 100 % of control.

In the case of `CCC(C)C(N)C(=O)NC(CC(N)=O)C(=O)NC(CC(C)C)C(=O)NC(CCCCN)C(=O)NC(C)C(=O)NC(CC(C)C)C(=O)NC(C)C(=O)NC(C)C(=O)NC(CC(C)C)C(=O)NC(C)C(=O)NC(CCCCN)C(=O)NC(CCCCN)C(=O)NC(C(=O)NC(CC(C)C)C(N)=O)C(C)CC` (stereo unspecified), the T/C (dose: 1.0 mg/kg/injection, schedule: Q01DX009 (ip), vehicle: Klucel (hydroxypropylcellulose) (HPC)) was 97 % of control; the T/C (dose: 2.0 mg/kg/injection, schedule: Q01DX009 (ip), vehicle: Klucel (hydroxypropylcellulose) (HPC)) was 97 % of control; the T/C (dose: 4.0 mg/kg/injection, schedule: Q01DX009 (ip), vehicle: Klucel (hydroxypropylcellulose) (HPC)) was 91 % of control.

With `S=C([S][Sn]([c]1ccccc1)([c]1ccccc1)[c]1ccccc1)N1CCCCC1`, the T/C reads like this: (dose: 3.12 mg/kg/injection, schedule: Q01DX009 (ip), vehicle: saline with Tween-80) 100 % of control; (dose: 6.25 mg/kg/injection, schedule: Q01DX009 (ip), vehicle: saline with Tween-80) 107 % of control; under setting [1], 103 % of control; under setting [2], 99 % of control.

With `CC1(C)N=C(N)N=C(N)N1c1ccc(OCCCCNC(=O)c2ccc(S(=O)(=O)F)cc2)c(Cl)c1`, the T/C is 108 % of control under setting [1], 112 % of control under setting [2], 111 % of control under setting [3] and 112 % of control under setting [4].

As for `Cc1cc2oc(C)[n+](Cc3ccccc3)c2cc1C`, the T/C is, setting by setting: under setting [3], 111 % of control; under setting [4], 98 % of control.

Regarding `Cc1ccc(NC(=S)NC(Cc2ccccc2)c2ccccc2)c(C)c1` (stereo unspecified), the T/C is 111 % of control (dose: 12.5 mg/kg/injection, schedule: Q01DX009 (ip), vehicle: Klucel (hydroxypropylcellulose) (HPC)); 109 % of control under setting [5]; 102 % of control under setting [6]; 94 % of control (dose: 75.0 mg/kg/injection, schedule: Q04DX003 (ip), vehicle: Klucel (hydroxypropylcellulose) (HPC)); 88 % of control under setting [7]; 94 % of control (dose: 150.0 mg/kg/injection, schedule: Q04DX003 (ip), vehicle: Klucel (hydroxypropylcellulose) (HPC)). Besides, the T/C (dose: 300.0 mg/kg/injection, schedule: Q04DX003 (ip), vehicle: Klucel (hydroxypropylcellulose) (HPC)) was 102 % of control.

Consider `CCC/C=C(/CC(=O)O)C(=O)O`, for which the T/C (dose: 75.0 mg/kg/injection, schedule: Q04DX003 (ip), vehicle: saline with Tween-80) is 100 % of control.

Turning to `CC(=O)Oc1cccc(C)c1`, the T/C (dose: 200.0 mg/kg/injection, schedule: Q01DX009 (ip), vehicle: saline with Tween-80) is 106 % of control.

For `COc1ccccc1NC(=O)Oc1c(C(C)C)cccc1C(C)C`, the T/C reads like this: under setting [7], 93 % of control; under setting [8], 90 % of control; (dose: 400.0 mg/kg/injection, schedule: Q01DX009 (ip), vehicle: Klucel (hydroxypropylcellulose) (HPC)) 93 % of control.

Consider `CC(=O)Oc1ccc(C)cc1`, for which the T/C by setting is: under setting [6], 103 % of control; under setting [7], 112 % of control; under setting [8], 103 % of control.

Turning to `CC1OC(O[C@H]2/C=C/C=C/C=C/C=C/C=C/C=C/C=C/[C@H](C)[C@@H](O)[C@@H](C)[C@H](C)OC(=O)C[C@H](O)C[C@H](O)CC[C@@H](O)[C@H](O)C[C@H](O)C[C@]3(O)C[C@H](O)[C@@H](C(=O)O)[C@H](C2)O3)C(O)C(N)C1O` (stereo partly specified), the T/C is 102 % of control and 124 % of control (dose: 1.0 mg/kg/injection, schedule: Q01DX009 (ip), vehicle: saline); 106 % of control and 113 % of control (dose: 2.0 mg/kg/injection, schedule: Q01DX009 (ip), vehicle: saline); 97 % of control and 116 % of control under setting [9]; 92 % of control and 102 % of control under setting [10]; 88 % of control and 98 % of control (dose: 16.0 mg/kg/injection, schedule: Q01DX009 (ip), vehicle: saline).

As for `COc1cc2c(cc1OC)C(CCc1ccc(Cl)cc1)N(C)CC2` (stereo unspecified), the T/C by setting is: under setting [5], 88 % of control; under setting [6], 93 % of control; under setting [7], 98 % of control; under setting [8], 93 % of control.

In the case of `CC(C)(C#N)N1CCCCC1`, the T/C is 97 % of control (dose: 0.03 mg/kg/injection, schedule: Q01DX009 (ip), vehicle: saline); 104 % of control (dose: 0.07 mg/kg/injection, schedule: Q01DX009 (ip), vehicle: saline); 98 % of control (dose: 0.15 mg/kg/injection, schedule: Q01DX009 (ip), vehicle: saline); 102 % of control (dose: 2.5 mg/kg/injection, schedule: Q01DX009 (ip), vehicle: saline).

With `O=CC(NC(=O)N(CCCl)N=O)C(O)C(O)C(O)CO` (stereo unspecified), the T/C runs as follows: (dose: 1.3 mg/kg/injection, schedule: Q01DX009 (ip), vehicle: saline) 153 % of control; (dose: 3.0 mg/kg/injection, schedule: Q01DX009 (ip), vehicle: saline) 101 % of control and 201 % of control; under setting [9], 198 % of control; (dose: 4.5 mg/kg/injection, schedule: Q01DX009 (ip), vehicle: saline) 109 % of control and 201 % of control; (dose: 6.25 mg/kg/injection, schedule: Q01DX001 (ip), vehicle: saline) 154 % of control; (dose: 6.7 mg/kg/injection, schedule: Q01DX009 (ip), vehicle: saline) 287 % of control. The T/C by setting is: (dose: 7.5 mg/kg/injection, schedule: Q01DX001 (ip), vehicle: saline with Tween-80) 184 % of control; under setting [10], 91 % of control; (dose: 10.0 mg/kg/injection, schedule: Q01DX009 (ip), vehicle: saline) 159 % of control; (dose: 12.5 mg/kg/injection, schedule: Q01DX001 (ip), vehicle: saline) 191 % of control; (dose: 13.0 mg/kg/injection, schedule: Q01DX001 (ip), vehicle: saline) 201 % of control; (dose: 15.0 mg/kg/injection, schedule: Q01DX001 (ip), vehicle: saline with Tween-80) 284 % of control. In addition, the T/C is 163 % of control and 259 % of control (dose: 20.0 mg/kg/injection, schedule: Q01DX001 (ip), vehicle: saline); 277 % of control (dose: 25.0 mg/kg/injection, schedule: Q01DX001 (ip), vehicle: saline); 285 % of control (dose: 30.0 mg/kg/injection, schedule: Q01DX001 (ip), vehicle: saline with Tween-80); 114 % of control and 287 % of control (dose: 30.0 mg/kg/injection, schedule: Q01DX001 (ip), vehicle: saline); 287 % of control (dose: 67.0 mg/kg/injection, schedule: Q01DX001 (ip), vehicle: saline).

Take `O=NN(CCBr)C(=O)NC1CCCCC1`: the T/C reads like this: (dose: 100.0 mg/kg/injection, schedule: Q01DX009 (ip), vehicle: gum acacia) 105 % of control; (dose: 200.0 mg/kg/injection, schedule: Q01DX009 (ip), vehicle: gum acacia) 102 % of control; (dose: 400.0 mg/kg/injection, schedule: Q01DX009 (ip), vehicle: gum acacia) 90 % of control.

As to `Cc1ccc(C(=O)NC2C(=O)NC(C(C)C)C(=O)N3CCCC3C(=O)N(C)CC(=O)N(C)C(C(C)C)C(=O)OC2C)c2c1Oc1c(c(C(=O)NC3C(=O)NC(C(C)C)C(=O)N4CCCC4C(=O)N(C)CC(=O)N(C)C(C(C)C)C(=O)OC3C)c3nc(-c4ccccc4)c(=O)oc3c1C)N2` (stereo unspecified), the T/C is, setting by setting: (dose: 0.13 mg/kg/injection, schedule: Q04DX003 (ip), vehicle: saline + alcohol) 124 % of control; (dose: 0.13 mg/kg/injection, schedule: Q04DX003 (ip), vehicle: water) 155 % of control; (dose: 0.25 mg/kg/injection, schedule: Q04DX003 (ip), vehicle: saline + alcohol) 152 % of control; (dose: 0.5 mg/kg/injection, schedule: Q04DX003 (ip), vehicle: saline + alcohol) 156 % of control; (dose: 0.5 mg/kg/injection, schedule: Q04DX003 (ip), vehicle: water) 163 % of control; (dose: 1.0 mg/kg/injection, schedule: Q04DX003 (ip), vehicle: saline + alcohol) 191 % of control. The T/C (dose: 1.0 mg/kg/injection, schedule: Q04DX003 (ip), vehicle: water) is 173 % of control.

For `CCOc1ccc(NC(=O)Nc2ccccc2)cc1`, under setting [4], the T/C was 86 % of control.

Take `COC(=O)C1CCC(C(=O)O)CC1` (stereo unspecified): the T/C was 100 % of control (dose: 100.0 mg/kg/injection, schedule: Q04DX003 (ip), vehicle: Klucel (hydroxypropylcellulose) (HPC)) and 100 % of control (dose: 200.0 mg/kg/injection, schedule: Q04DX003 (ip), vehicle: Klucel (hydroxypropylcellulose) (HPC)).

For `CCSC(=O)N1c2ccc(OC)cc2C=CC1C#N` (stereo unspecified), under setting [4], the T/C was 121 % of control.
